Laboratory results: US20250084056A1, “SUBSTITUTED OXOISOINDOLINYL PIPERIDINE-2,6-DIONE COMPOUNDS” (BRISTOL-MYERS SQUIBB COMPANY, priority 2023, published 2025)

What was measured:
Format in all cases: cell-based
GSPT1 = GSPT1 (Homo sapiens, UniProt P15170+Q96SW2); test: GSPT1 Cellular Degradation Assay (DF15-GSPT1-ePL); set-up: expressed in transfected cells; conditions: DF15-GSPT1-ePL cells, 20 hours
Procedure, shortened: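 Human DF15 cells co-expressing a GSPT1–ePL fusion were treated with compound in RPMI 1640/10% FBS for 20 h at 37 °C. GSPT1 level was read by enzyme-fragment-complementation luminescence after 60 min with detection reagent. The reference degrader at […] defined 75% response; DC50 and Dmax were reported.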

Cyclin E1 = Cyclin E1 (Homo sapiens, UniProt P24864+Q96SW2); test: Cyclin E1 Cellular Degradation Assay (MSD); set-up: endogenous in cells; host or cells: OVCAR3; conditions: for DC50 / Dmax: Cyclin E1 cellular degradation; for Dmax: maximum degradation; for Ratio of GSPT1 DC50/Cyclin E1 DC50: selectivity for degradation of Cyclin E1 over GSPT1
Cyclin E1, sequence (P24864 whole entry): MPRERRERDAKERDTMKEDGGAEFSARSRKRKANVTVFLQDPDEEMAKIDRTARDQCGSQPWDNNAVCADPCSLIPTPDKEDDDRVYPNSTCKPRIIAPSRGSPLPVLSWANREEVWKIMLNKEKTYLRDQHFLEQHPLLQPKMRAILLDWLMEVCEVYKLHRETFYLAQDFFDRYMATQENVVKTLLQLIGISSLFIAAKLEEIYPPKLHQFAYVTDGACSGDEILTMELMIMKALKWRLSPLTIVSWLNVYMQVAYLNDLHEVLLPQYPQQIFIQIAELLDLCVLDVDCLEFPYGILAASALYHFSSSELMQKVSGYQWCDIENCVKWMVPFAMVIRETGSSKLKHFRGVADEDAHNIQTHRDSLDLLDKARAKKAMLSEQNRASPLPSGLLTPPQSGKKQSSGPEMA
Cyclin E1, sequence (Q96SW2 whole entry): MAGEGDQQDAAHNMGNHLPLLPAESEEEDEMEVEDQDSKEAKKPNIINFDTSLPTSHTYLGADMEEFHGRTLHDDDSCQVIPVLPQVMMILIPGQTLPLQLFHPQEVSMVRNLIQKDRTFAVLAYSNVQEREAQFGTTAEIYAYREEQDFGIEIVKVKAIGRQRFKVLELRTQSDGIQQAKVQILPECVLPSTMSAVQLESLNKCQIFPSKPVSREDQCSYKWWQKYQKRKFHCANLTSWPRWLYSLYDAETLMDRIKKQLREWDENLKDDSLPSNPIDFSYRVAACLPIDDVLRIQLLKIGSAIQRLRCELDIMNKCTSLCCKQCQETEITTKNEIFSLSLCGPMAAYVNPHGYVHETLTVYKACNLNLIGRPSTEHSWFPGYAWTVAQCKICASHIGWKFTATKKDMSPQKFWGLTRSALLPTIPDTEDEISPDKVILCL
Cyclin E1, sequence (Q16531 whole entry partner): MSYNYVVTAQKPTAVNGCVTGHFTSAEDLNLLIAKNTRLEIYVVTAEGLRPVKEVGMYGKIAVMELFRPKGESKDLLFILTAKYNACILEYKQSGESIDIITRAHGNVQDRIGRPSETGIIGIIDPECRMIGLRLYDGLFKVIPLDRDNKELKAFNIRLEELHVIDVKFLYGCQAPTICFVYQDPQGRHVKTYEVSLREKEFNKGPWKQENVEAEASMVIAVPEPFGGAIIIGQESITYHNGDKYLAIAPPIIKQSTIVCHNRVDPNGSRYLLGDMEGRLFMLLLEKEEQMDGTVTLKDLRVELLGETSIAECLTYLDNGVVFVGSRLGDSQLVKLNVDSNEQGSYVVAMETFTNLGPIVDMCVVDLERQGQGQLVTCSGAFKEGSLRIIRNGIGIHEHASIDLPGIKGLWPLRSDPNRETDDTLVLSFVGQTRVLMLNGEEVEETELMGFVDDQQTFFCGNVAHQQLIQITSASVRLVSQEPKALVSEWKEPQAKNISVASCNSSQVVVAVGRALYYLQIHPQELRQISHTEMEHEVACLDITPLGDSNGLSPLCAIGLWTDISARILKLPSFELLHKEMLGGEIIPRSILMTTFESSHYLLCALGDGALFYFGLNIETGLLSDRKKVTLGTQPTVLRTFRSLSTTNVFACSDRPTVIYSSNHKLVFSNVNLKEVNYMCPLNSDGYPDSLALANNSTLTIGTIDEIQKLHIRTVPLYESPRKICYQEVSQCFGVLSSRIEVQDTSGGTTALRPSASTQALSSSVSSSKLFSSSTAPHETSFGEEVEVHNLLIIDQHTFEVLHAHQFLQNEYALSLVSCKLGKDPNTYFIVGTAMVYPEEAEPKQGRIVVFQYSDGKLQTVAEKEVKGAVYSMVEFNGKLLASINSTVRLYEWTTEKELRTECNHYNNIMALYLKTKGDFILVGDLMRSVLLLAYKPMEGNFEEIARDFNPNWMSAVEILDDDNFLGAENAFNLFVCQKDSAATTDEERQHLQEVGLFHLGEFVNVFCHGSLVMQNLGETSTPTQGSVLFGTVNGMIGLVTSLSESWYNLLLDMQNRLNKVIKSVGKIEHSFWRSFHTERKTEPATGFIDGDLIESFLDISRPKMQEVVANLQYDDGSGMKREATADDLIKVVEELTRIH
Procedure, shortened: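 OVCAR3 cells treated with compound for 24 h at 37 °C, lysed, and cyclin E1 measured by MSD sandwich immunoassay (rabbit capture, mouse detection anti-CCNE1). Reference degrader at […] defined 110% response; DC50 and Dmax derived from response.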

Phospho-Rb (Ser807/811) = test: Phospho-Retinoblastoma (pRB) Cellular Assay; conditions: Homo sapiens, OVCAR-3, NIH OVCAR3 cells, 24 hours; for IC50: concentration giving 50% response; for Emax: maximum response, reference compound at 10 μM = 100%, read-out: pRB Ymax
Procedure, shortened: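 OVCAR3 cells seeded overnight, then dosed with serial dilutions for 24 h at 37° C. Lysed with kit mix plus phosphatase inhibitor, ≥4 h at room temperature, read on EnVision; 100% response set by reference compound at 10 μM, giving IC50 and Ymax.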

GSPT1, sequence (P15170 whole entry, the tested form may be a part): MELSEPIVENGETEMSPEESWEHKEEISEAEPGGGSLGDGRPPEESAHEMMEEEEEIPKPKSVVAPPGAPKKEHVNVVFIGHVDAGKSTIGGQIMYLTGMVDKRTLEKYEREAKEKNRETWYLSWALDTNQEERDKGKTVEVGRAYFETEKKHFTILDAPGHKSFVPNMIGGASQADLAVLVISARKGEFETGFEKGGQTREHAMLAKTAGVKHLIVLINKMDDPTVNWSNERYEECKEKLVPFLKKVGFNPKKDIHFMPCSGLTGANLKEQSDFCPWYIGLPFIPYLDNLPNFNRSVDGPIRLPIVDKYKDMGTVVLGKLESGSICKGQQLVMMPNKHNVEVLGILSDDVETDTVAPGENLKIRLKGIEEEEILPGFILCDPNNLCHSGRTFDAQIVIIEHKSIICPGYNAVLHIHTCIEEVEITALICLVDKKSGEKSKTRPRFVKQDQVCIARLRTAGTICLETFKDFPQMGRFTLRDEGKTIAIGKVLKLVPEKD
GSPT1, sequence (Q96SW2 whole entry, the tested form may be a part): as the sequence (Q96SW2 whole entry) above
GSPT1, sequence (Q16531 whole entry partner, the tested form may be a part): as the sequence (Q16531 whole entry partner) above

SMILES | DC50 (GSPT1) [nM] | Dmax (GSPT1) [%] | DC50 (Cyclin E1) [nM] | Dmax (Cyclin E1) [%] | Ratio of GSPT1 DC50/Cyclin E1 DC50 (Cyclin E1) | IC50 (Phospho-Rb (Ser807/811)) [nM] | Emax (Phospho-Rb (Ser807/811)) [%]
COc1c(COC(=O)Nc2ccc(Oc3ccc(F)cc3)cc2C)ccc2c1C(=O)N(C1CCC(=O)NC1=O)C2 (stereo not drawn) [Example 51, [2-(2,6-dioxopiperidin-3-yl)-4-methoxy-3-oxo-2,3-dihydro-1H-isoindol-5-yl]methyl N-[4-(4-fluorophenoxy)-2-methylphenyl]carbamate] | > 14000 | 16 | 363 | 106 | >39 | 188 | 109
O=C1CCC(N2Cc3ccc(COC(=O)Nc4ccc(Oc5ccc(F)c(F)c5)cc4F)c(O[C@@H]4CCOC4)c3C2=O)C(=O)N1 (stereo partly drawn) [Example 154, [2-(2,6-dioxopiperidin-3-yl)-3-oxo-4-[(3R)-oxolan-3-yloxy]-2,3-dihydro-1H-isoindol-5-yl]methyl N-[4-(3,4-difluorophenoxy)-2-fluorophenyl]carbamate] | > 14000 | 26 | 147 | 100 | >95 | 225 | 123
COc1c(COC(=O)Nc2ccc(Oc3ccc(F)c(F)c3)cc2)ccc2c1C(=O)N(C1CCC(=O)NC1=O)C2 (stereo not drawn) [Example 1, [2-(2,6-dioxopiperidin-3-yl)-4-methoxy-3-oxo-2,3-dihydro-1H-isoindol-5-yl]methyl N-[4-(3,4-difluorophenoxy)phenyl]carbamate] | > 14000 | 27 | 199 | 110 | >70 | 133 | 104
O=C1CCC(N2Cc3ccc(COC(=O)Nc4ccc(Oc5cc(F)cc(F)c5)cc4F)c(O[C@@H]4CCCOC4)c3C2=O)C(=O)N1 (stereo partly drawn) [Example 149, [2-(2,6-dioxopiperidin-3-yl)-4-[(3R)-oxan-3-yloxy]-3-oxo-2,3-dihydro-1H-isoindol-5-yl]methyl N-[4-(3,5-difluorophenoxy)-2-fluorophenyl]carbamate] | > 14000 | 15 | 67 | 109 | >209 | 71 | 144
O=C1CCC(N2Cc3ccc(COC(=O)Nc4ccc(Oc5ccc(F)cc5)cc4F)c(O[C@@H]4CCCOC4)c3C2=O)C(=O)N1 (stereo partly drawn) [Example 147, [2-(2,6-dioxopiperidin-3-yl)-4-[(3R)-oxan-3-yloxy]-3-oxo-2,3-dihydro-1H-isoindol-5-yl]methyl N-[2-fluoro-4-(4-fluorophenoxy)phenyl]carbamate] | > 14000 | 2 | 12 | 110 | >1,121 | 43 | 137
COc1c(COC(=O)Nc2ccc(Oc3ccc(F)cc3)cc2)ccc2c1C(=O)N(C1CCC(=O)NC1=O)C2 (stereo not drawn) [Example 84, [2-(2,6-dioxopiperidin-3-yl)-4-methoxy-3-oxo-2,3-dihydro-1H-isoindol-5-yl]methyl N-[4-(4-fluorophenoxy)phenyl]carbamate] | > 14000 | 22 | 94 | 108 | >149 | 254 | 95

Now from value to molecule, other results behind:

DC50 (GSPT1) [nM] | Dmax (GSPT1) [%] | DC50 (Cyclin E1) [nM] | Dmax (Cyclin E1) [%] | Ratio of GSPT1 DC50/Cyclin E1 DC50 (Cyclin E1) | IC50 (Phospho-Rb (Ser807/811)) [nM] | SMILES | Emax (Phospho-Rb (Ser807/811)) [%]
> 14000 | 19 | 19 | 106 | >738 | 22 | O=C1CCC(N2Cc3ccc(COC(=O)Nc4ccc(Oc5ccc(F)c(F)c5)cc4)c(OC4CCOCC4)c3C2=O)C(=O)N1 (stereo not drawn) [Example 130, [2-(2,6-dioxopiperidin-3-yl)-4-(oxan-4-yloxy)-3-oxo-2,3-dihydro-1H-isoindol-5-yl]methyl N-[4-(3,4-difluorophenoxy)phenyl]carbamate] | 119
4000 | 46 | 91 | 107 | 44 | 128 | COc1c(COC(=O)Nc2ccc(Oc3ccc(F)c(F)c3)cc2C)ccc2c1C(=O)N(C1CCC(=O)NC1=O)C2 (stereo not drawn) [Example 38, [2-(2,6-dioxopiperidin-3-yl)-4-methoxy-3-oxo-2,3-dihydro-1H-isoindol-5-yl]methyl N-[4-(3,4-difluorophenoxy)-2-methylphenyl]carbamate] | 111
> 14000 | 15 | 95 | 106 | >147 | 74 | COc1c(COC(=O)Nc2ccc(Oc3cccc(F)c3Cl)cc2)ccc2c1C(=O)N(C1CCC(=O)NC1=O)C2 (stereo not drawn) [Example 111, [2-(2,6-dioxopiperidin-3-yl)-4-methoxy-3-oxo-2,3-dihydro-1H-isoindol-5-yl]methyl N-[4-(2-chloro-3-fluorophenoxy)phenyl]carbamate] | 99
